Experiments:
RBL-2H3 cells [1] = experiment: Exocytic light scatter changes on the flow cytometer; assay type: cell-based; conditions: 0.5 ug/ml, 0 and 10 minutes
Experimental: (§1) Experiments were carried out in modified tyrodes buffer (MD which consisted of NaCl (137 mM), KCl (2.7 mM), CaCl2 (1.8 mM), MgCl2 (1 mM), Glucose (5.6 mM), Hepes (20 mM, pH 7.4), and bovine serum albumin (0.1%). MC-9 cells were spun at 400×g and the media was aspirated. The cells were then washed with MT, respun/aspirated and taken up in MT at a density of 5×10^6 cells/ml. Cells were then treated with either DMSO or ionophore for 30 minutes (or the time was varied if a timecourse). The cells were then pelleted with the supernatant collected for enzymatic analysis; in some cases, the cells then processed for flow cytometry. All stimulations were carried out at 37° C. Stimulations of RBL-2H3 cells were carried out by washing the adherent cells one time in MT and then adding warmed MT (1 ml/10^6 cells) containing the stimulus. The cells were incubated at 37° C. for 30 minutes and the supernatant was harvested for further analysis. In some of the examples, (Examples 4-6), the plate bound cells were stained for annexin and then removed from the flask using No-Zyme (Collaborative Research, Inc.) for further processing for flow cytometry. For stimulation of RBL-2H3 cells with antigen crosslinking the cells were incubated overnight with IgE anti-DNP (Sigma Chemical Co.) in complete media at a concentration of 50 ng/ml. The following day they were washed one time in MT and stimulated as described above with the exception that bovine serum albumin coupled to DNP was used as the stimulus at 100 ng/ml.
(§2) Cells processed for stimulation and staining were taken up in MT on ice and filtered through a 100 μm filter prior to cytometry. Cells were analyzed using a FACSCAN (Becton Dickinson Inc., laser line […]) or a Mo-Flo (Cytomation, Inc., laser lines 350 nM broadband (UV), 488 nm, and 647 nm) Cytometer. Cells were sorted, if desired using the Mo-Flo.
(§3) The cells were prepared as described in Example 2, and light scatter properties were determined.

MC-9 cells [2] = experiment: as above; assay type: cell-based
Experimental: as §1, §2, §3

MC-9 cells [3] = experiment: In situ enzymology (ELF-97 glucuronide, cell surface glucuronidase) by FACS; assay type: cell-based; conditions: 0.5 μg/ml vs DMSO
Experimental: MC-9 cells were stimulated for exocytosis as described above and then incubated in enyme substrate buffer (BSA free MT, pH 4.3-7.4 range) containing the substrate ELF-97 Glucuronide (250 NM) for 15 minutes at 37° C. The cells were washed one time in MT and then viewed in the microscope or on the flowcytometer. Further methodologies are described in the preceding examples.

MC-9 cells [4] = experiment: Population based exocytic enzyme activity assay on cell supernatant; conditions: 2 μm, 30 minutes, vs DMSO
Experimental: (§4) Experiments were carried out in modified tyrodes buffer (MD which consisted of NaCl (137 mM), KCl (2.7 mM), CaCl2 (1.8 mM), MgCl2 (1 mM), Glucose (5.6 mM), Hepes (20 mM, pH 7.4), and bovine serum albumin (0.1%). MC-9 cells were spun at 400×g and the media was aspirated. The cells were then washed with MT, respun/aspirated and taken up in MT at a density of 5×10^6 cells/ml. Cells were then treated with either DMSO or ionophore for 30 minutes (or the time was varied if a timecourse). The cells were then pelleted with the supernatant collected for enzymatic analysis; in some cases, the cells then processed for flow cytometry. All stimulations were carried out at 37° C. Stimulations of RBL-2H3 cells were carried out by washing the adherent cells one time in MT and then adding warmed MT (1 ml/10^6 cells) containing the stimulus. The cells were incubated at 37° C. for 30 minutes and the supernatant was harvested for further analysis. […]
(§5) Enzyme assays were carried out on cell supernatants and pellets following exocytic stimulation. […] The plate was read on a fluorescence plate reader (Wallac, Inc.) using excitation 380 nm/emission 440 nm filters every 3 minutes for five times to obtain an enzymatic rate; analyses were carried out in triplicate.

MC-9 cells [5] = experiment: Styryl dye (FM 1-43 / FM 4-64) uptake exocytosis assay by FACS; assay type: cell-based; conditions: 2 μM vs DMSO
Experimental: as §4, with “analysis. In some of the examples, (Examples 4-6), the plate bound cells were stained for annexin and then removed from the flask using No-Zyme (Collaborative Research, Inc.) for further processing for flow cytometry.” for “analysis.”
The cells were prepared as described above. […] The cells were then ready for analysis in the flow cytometer (see Example 2).

MC-9 cells [6] = experiment: Lysotracker green release from granules by FACS; assay type: cell-based
Experimental: Lysotracker dyes (blue, green, and red) were loaded into cells by diluting them to a final concentration of 1 μM in complete media and incubating the cells for 60 minutes at 37° C. in their presence. After loading, the cells were washed two times in MT and then were ready for further analysis or stimulation. Further methodologies are described in the preceding examples.

MC-9 cells [7] = experiment: Annexin-V staining exocytosis assay by FACS; assay type: cell-based
Experimental: as §1
Cells post exocytic stimulus were stained with annexin-PITC at a dilution of 1/100 in MT for 10 minutes at room temperature. The cells were then washed one time in MT, taken up in MT and viewed in the flow cytometer or microscope. For indirect labeling, annexin-biotin was added to the MT during the stimulation procedure at a dilution of 1/200. The cells were then pelleted in ice cold MT, spun, aspirated, and taken up in ice cold MT with streptavidin-APC at a dilution of 1/200 and kept on ice for 15 minutes. […]

MC-9 cells [8] = experiment: Propidium iodide staining (plasma membrane integrity) by FACS; assay type: cell-based; conditions: 2 μm vs DMSO
Experimental: as §1, with “The following day they were washed one time in MT and stimulated as described above with the exception that bovine serum albumin coupled to DNP was used as the stimulus at 100 ng/ml.” left out

RBL-2H3 cells [9] = experiment: Population based exocytic enzyme activity assay on cell supernatant, antigen crosslinking; conditions: RBL-2H3 sensitized 16 hours with varying IgE anti-DNP, stimulated with increasing BSA-DNP
Experimental: as §4, §5

RBL-2H3 cells [10] = experiment: Annexin-V-FITC staining of exocytic granules, antigen crosslinking, microscopy; assay type: cell-based; conditions: IgE-sensitized RBL-2H3 cells, 100 ng/ml vs MT buffer only
Experimental: as §4, with “analysis. In some of the examples, (Examples 4-6), the plate bound cells were stained for annexin and then removed from the flask using No-Zyme (Collaborative Research, Inc.) for further processing for flow cytometry.” for “analysis.”
Cells post stimulation or staining were mounted onto glass slides and coverslipped; these were directly visualized by brighffield and fluorescence microscopy on an inverted microscope (TE300, Nikon) using standard BFP, FITC, or TRITC filter sets. […]

[11] = MC-9 cells, 0, 1, 2, 3 μM, four-parameter analysis

CNc1ccc2oc(C[C@H]3O[C@@]4(CC[C@H]3C)O[C@H]([C@H](C)C(=O)c3ccc[nH]3)[C@H](C)C[C@H]4C)nc2c1C(=O)O [A23187]
light scatter changes (side scatter vs. forward scatter) (RBL-2H3 cells [1]): Time dependent scatter changes are evident | light scatter changes (side scatter vs. forward scatter) (MC-9 cells [2]; MC-9 cells, 0.5 ug/ml, 0, 5 and 30 minutes): Time dependent scatter changes are evident | ELF-97 signal (cell surface enzymatic precipitate, in situ glucuronidase activity) (MC-9 cells [3]): significant increase in signal

C[C@H](CCC(=O)O)C[C@H](C)C[C@H](C)C(=O)/C=C(\O)[C@H](C)C[C@H](C)C/C=C/[C@@H](C)[C@@H](O)[C@@H](C)[C@@H](O)C[C@@H]1CC[C@@](C)([C@H]2CC[C@@](C)([C@@H](C)O)O2)O1 [ionomycin]
forward scatter (MC-9 cells [2]; [11]): increases | side scatter (MC-9 cells [2]; [11]): decreases | forward and side scatter (MC-9 cells [2]; MC-9 cells, 2 μM vs DMSO, 30 minute timepoint, data not shown): stimulation dependent changes in both parameters | glucuronidase or hexosaminidase activity in the supernatant (MC-9 cells [4]): Stimulated release of granule enzymatic activity is evident | styryl dye fluorescence intensity (FM 4-64 and FM 1-43) (MC-9 cells [5]; channels 1 and 3): clear stimulation dependent increase | FM 1-43 signal (MC-9 cells [5]; four-parameter analysis, data not shown): stimulation dependent increases in both signals | Lysotracker green fluorescence intensity, channel 1 (MC-9 cells [6]; MC-9 cells loaded 1 hour, 2 μM vs DMSO): significant loss of signal | Lysotracker green signal (MC-9 cells [6]; [11]): decreases | annexin-V-APC signal (MC-9 cells [7]; [11]): becomes greater | annexin-V-APC signal (MC-9 cells [7]; MC-9 cells, 2 μM vs DMSO, four-parameter analysis with FM 1-43, data not shown): stimulation dependent increases in both signals | annexin-V-FITC binding (MC-9 cells [7]; MC-9 cells, 2 μm vs DMSO): significant increase | PI staining (MC-9 cells [8]): no significant increase

BSA-DNP: bovine serum albumin coupled to DNP, antigen used as the stimulus
supernatant hexosaminidase activity (RBL-2H3 cells [9]): dose response | annexin-V-FITC staining of cell surface granules (RBL-2H3 cells [10]): Numerous cell surface granules are stained
